{"source": "paper PMC6900016", "about": "“Synthesis of Indomorphan Pseudo‐Natural Product Inhibitors of Glucose Transporters GLUT‐1 and ‐3” (Angewandte Chemie (International Ed. in English), 2019)", "experiment_in_all_cases": "cells", "parameters_in_all_cases": "Cell growth inhibition, sulforhodamine B total protein staining", "key": {"THP1": {"tested_on": "THP1", "conditions": "Homo sapiens, THP-1; 72 h growth; read-out: Cell growth inhibition IC50/µM", "description": "(§1) Cell panel profiling A panel of 94 cell lines was exposed to Glupin for 72 h to assess the influence on cell growth (Oncolead, Germany). Cell growth was determined using sulforhodamine B assay. Measurements were performed using a total protein staining protocol. Briefly, after treatement cells were fixed addition of 10% TCA (for adherent growing cells) or 50% TCA (for semi-adherent growing cells or cells growing in suspension). After an incubation at 4°C for 1 h, plates were washed twice with 400 μl of deionized water and dried. Cells were then stained with 100 μl of 0.04% wt/v sulforhodamine B. Plates were incubated at room temperature for at least 30 min and washed six times with 1% acetic acid to remove unbound stain. […] This effect was much stronger at a physiological glucose concentration (5 mM; Figure 5 b,c). […] IC50 values lower than 300 nM were obtained for more than 20 cell lines, whereas 24 cell lines were not affected by the compound, among them the peripheral blood mononuclear control cells (PBMCs). Sensitivity to Glupin was detected across various tissue types (Table S6)."}, "DLD1": {"tested_on": "DLD1", "conditions": "Homo sapiens, DLD-1; 72 h growth; read-out: Cell growth inhibition IC50/µM", "description": "as §1"}, "SF268": {"tested_on": "SF268", "conditions": "Homo sapiens, SF-268; 72 h growth; read-out: Cell growth inhibition IC50/µM", "description": "as §1"}, "C33A": {"tested_on": "C33A", "conditions": "Homo sapiens, C-33-A; 72 h growth; read-out: Cell growth inhibition IC50/µM", "description": "as §1"}, "MCF7": {"tested_on": "MCF7", "conditions": "Homo sapiens, MCF7; 72 h growth; read-out: Cell growth inhibition IC50/µM", "description": "as §1"}, "CAKI1": {"tested_on": "CAKI1", "conditions": "Homo sapiens, CAKI-1; 72 h growth; read-out: Cell growth inhibition IC50/µM", "description": "as §1"}, "ASPC1": {"tested_on": "ASPC1", "conditions": "Homo sapiens, ASPC1; 72 h growth; read-out: Cell growth inhibition IC50/µM", "description": "as §1"}, "CALU6": {"tested_on": "CALU6", "conditions": "Homo sapiens, Calu-6; 72 h growth; read-out: Cell growth inhibition IC50/µM", "description": "as §1"}, "A375": {"tested_on": "A375", "conditions": "Homo sapiens, A-375; 72 h growth; read-out: Cell growth inhibition IC50/µM", "description": "as §1"}, "BT20": {"tested_on": "BT20", "conditions": "Homo sapiens, BT-20; 72 h growth; read-out: Cell growth inhibition IC50/µM", "description": "as §1"}, "ACHN": {"tested_on": "ACHN", "conditions": "Homo sapiens, ACHN; 72 h growth; read-out: Cell growth inhibition IC50/µM", "description": "as §1"}, "OVCAR4": {"tested_on": "OVCAR4", "conditions": "Homo sapiens, OVCAR-4; 72 h growth; read-out: Cell growth inhibition IC50/µM", "description": "as §1"}, "WSUNHL": {"tested_on": "WSUNHL", "conditions": "Homo sapiens, WSU-NHL; 72 h growth; read-out: Cell growth inhibition IC50/µM", "description": "as §1"}, "PLCPRF5": {"tested_on": "PLCPRF5", "conditions": "Homo sapiens, PLC-PRF-5; 72 h growth; read-out: Cell growth inhibition IC50/µM", "description": "as §1"}, "J82": {"tested_on": "J82", "conditions": "Homo sapiens, J82; 72 h growth; read-out: Cell growth inhibition IC50/µM", "description": "as §1"}, "786O": {"tested_on": "786O", "conditions": "Homo sapiens, 786-0; 72 h growth; read-out: Cell growth inhibition IC50/µM", "description": "as §1"}, "SUDHL10": {"tested_on": "SUDHL10", "conditions": "Homo sapiens, SU-DHL10; 72 h growth; read-out: Cell growth inhibition IC50/µM", "description": "as §1"}, "IMR90": {"tested_on": "IMR90", "conditions": "Homo sapiens, IMR-90; 72 h growth; read-out: Cell growth inhibition IC50/µM", "description": "as §1"}, "EFO21": {"tested_on": "EFO21", "conditions": "Homo sapiens, EFO-21; 72 h growth; read-out: Cell growth inhibition IC50/µM", "description": "as §1"}, "HS729": {"tested_on": "HS729", "conditions": "72 h growth; read-out: Cell growth inhibition IC50/µM", "description": "as §1"}, "CASKI": {"tested_on": "CASKI", "conditions": "Homo sapiens, Ca-Ski; 72 h growth; read-out: Cell growth inhibition IC50/µM", "description": "as §1"}, "T24": {"tested_on": "T24", "conditions": "Homo sapiens, T-24; 72 h growth; read-out: Cell growth inhibition IC50/µM", "description": "as §1"}, "PC3": {"tested_on": "PC3", "conditions": "Homo sapiens, PC-3; 72 h growth; read-out: Cell growth inhibition IC50/µM", "description": "as §1"}}}
{"compound": "CCOC(=O)Cn1c2c(c3ccccc31)C[C@@H]1C[C@H]2C(OC)CN1C(=O)c1cccnc1SC", "note": "(single isomer, unassigned; (+)) [(+)-5a, Glupin]", "values": [{"measurement": "IC50", "setting": "THP1", "result": "> 30", "unit": "µM"}, {"measurement": "IC50", "setting": "DLD1", "result": 0.825, "unit": "µM"}, {"measurement": "IC50", "setting": "SF268", "result": 0.37, "unit": "µM"}, {"measurement": "IC50", "setting": "C33A", "result": 1.5, "unit": "µM"}, {"measurement": "IC50", "setting": "MCF7", "result": "> 30", "unit": "µM"}, {"measurement": "IC50", "setting": "CAKI1", "result": 0.805, "unit": "µM"}, {"measurement": "IC50", "setting": "ASPC1", "result": 0.695, "unit": "µM"}, {"measurement": "IC50", "setting": "CALU6", "result": 0.538, "unit": "µM"}, {"measurement": "IC50", "setting": "A375", "result": 0.659, "unit": "µM"}, {"measurement": "IC50", "setting": "BT20", "result": "> 30", "unit": "µM"}, {"measurement": "IC50", "setting": "ACHN", "result": "> 30", "unit": "µM"}, {"measurement": "IC50", "setting": "OVCAR4", "result": 1.41, "unit": "µM"}, {"measurement": "IC50", "setting": "WSUNHL", "result": 0.062, "unit": "µM"}, {"measurement": "IC50", "setting": "PLCPRF5", "result": "> 30", "unit": "µM"}, {"measurement": "IC50", "setting": "J82", "result": 7.25, "unit": "µM"}, {"measurement": "IC50", "setting": "786O", "result": 0.274, "unit": "µM"}, {"measurement": "IC50", "setting": "SUDHL10", "result": 0.219, "unit": "µM"}, {"measurement": "IC50", "setting": "IMR90", "result": "> 30", "unit": "µM"}, {"measurement": "IC50", "setting": "EFO21", "result": "> 30", "unit": "µM"}, {"measurement": "IC50", "setting": "HS729", "result": "> 30", "unit": "µM"}, {"measurement": "IC50", "setting": "CASKI", "result": 0.433, "unit": "µM"}, {"measurement": "IC50", "setting": "T24", "result": 0.243, "unit": "µM"}, {"measurement": "IC50", "setting": "PC3", "result": 0.827, "unit": "µM"}]}
